{"source": "patent US10011595B2", "about": "(Merck Sharp & Dohme Corp., priority 2014, dated 2018)", "molecular_target": "human orexin-2 receptor (Homo sapiens (Human), UniProt O43614)", "sequence (O43614 whole entry)": "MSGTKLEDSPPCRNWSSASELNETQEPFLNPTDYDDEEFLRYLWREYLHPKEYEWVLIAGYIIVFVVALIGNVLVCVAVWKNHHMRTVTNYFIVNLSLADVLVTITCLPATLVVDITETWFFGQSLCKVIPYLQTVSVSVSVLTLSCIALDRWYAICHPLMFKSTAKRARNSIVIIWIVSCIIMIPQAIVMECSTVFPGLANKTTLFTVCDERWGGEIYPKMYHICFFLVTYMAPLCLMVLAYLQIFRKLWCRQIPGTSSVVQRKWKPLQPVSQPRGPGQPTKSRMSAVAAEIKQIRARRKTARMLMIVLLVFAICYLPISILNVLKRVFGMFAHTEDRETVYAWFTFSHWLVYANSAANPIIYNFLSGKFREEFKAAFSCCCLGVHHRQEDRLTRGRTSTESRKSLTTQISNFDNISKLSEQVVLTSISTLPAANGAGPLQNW", "test": "FLIPR Ca2+ Flux Assay, orexin-2 receptor", "assay_type": "cell-based", "settings": "CHO cells expressing the human orexin-2 receptor; agonist 70 pM Ala-6,12 orexin-A; read-out: hOX2R FLIPR IC50", "summary_of_the_method": "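CHO cells expressing rat OX1 or human OX2 receptor, Fluo-4AM loaded 60 min; compound preincubated 5 min before 70 pM Ala-6,12 human orexin-A in HBSS/20 mM HEPES/0.1% BSA/2.5 mM probenecid, pH 7.4. FLIPR peak fluorescence over 5 min versus agonist-only response gives IC50.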", "note": "pIC50: −log10 of the molar value."}
{"smiles": "CCOc1ccccc1C(=O)N(CC)CCN(C)c1cccc(C(C)(C)O)n1", "note": "[Example I-18, 2-ethoxy-N-ethyl-N-(2-((6-(2-hydroxypropan-2-yl)pyridin-2-yl)(methyl)amino)ethyl)benz-amide]", "values": [{"measurement": "pIC50", "result": 6.81}]}
{"smiles": "CCN(CCN(C)c1cccc(C(C)(C)O)n1)C(=O)c1cccnc1CC(F)(F)F", "note": "[Example I-19, N-ethyl-N-(2-((6-(2-hydroxypropan-2-yl)pyridin-2-yl)(methyl)amino)ethyl)-2-(2,2,2-trifluoroethyl)nicotinamide]", "values": [{"measurement": "pIC50", "result": 5.64}]}
{"smiles": "CCN(CCN(C)c1cccc(C(C)(C)O)n1)C(=O)c1ccccc1C1CC1(F)F", "note": "(centres unmarked) [Example I-20, 2-(2,2-difluorocyclopropyl)-N-ethyl-N-(2-((6-(2-hydroxypropan-2-yl)pyridin-2-yl)(methyl)amino)ethyl)benz-amide]", "values": [{"measurement": "pIC50", "result": 7.44}]}
{"smiles": "CCN(CCN(C)c1cccc(C(C)(C)O)n1)C(=O)c1cccnc1OC(C)C", "note": "[Example I-21, N-ethyl-N-(2-((6-(2-hydroxypropan-2-yl)pyridin-2-yl)(methyl)amino)ethyl)-2-isopropoxynicotinamide]", "values": [{"measurement": "pIC50", "result": 6.41}]}
{"smiles": "CCN(CCN(C)c1cccc(C(C)(C)O)n1)C(=O)c1ncccc1-c1ccccc1", "note": "[Example I-22, N-ethyl-N-(2-((6-(2-hydroxypropan-2-yl)pyridin-2-yl)(methyl)amino)ethyl)-3-phenylpicolinamide]", "values": [{"measurement": "pIC50", "result": 6.68}]}
{"smiles": "CCN(CCN(C)c1cccc(C(C)(C)O)n1)C(=O)c1ccccc1-n1ncnn1", "note": "[Example I-23, N-ethyl-N-(2-((6-(2-hydroxypropan-2-yl)pyridin-2-yl)(methyl)amino)ethyl)-2-(2H-tetrazol-2-yl)benzamide]", "values": [{"measurement": "pIC50", "result": 7.16}]}
{"smiles": "CCN(CCN(C)c1cccc(C(C)(C)O)n1)C(=O)c1cccnc1-n1cccn1", "note": "[Example I-24, N-ethyl-N-(2-((6-(2-hydroxypropan-2-yl)pyridin-2-yl)(methyl)amino)ethyl)-2-(1H-pyrazol-1-yl)nicotinamide]", "values": [{"measurement": "pIC50", "result": 6.98}]}
{"smiles": "CCOc1ncccc1C(=O)N(CC)CCN(C)c1cccc(C(C)(C)O)n1", "note": "[Example I-25, 2-ethoxy-N-ethyl-N-(2-((6-(2-hydroxypropan-2-yl)pyridin-2-yl)(methyl)amino)ethyl)nicotin-amide]", "values": [{"measurement": "pIC50", "result": 6.33}]}
